According to ChEMBL document CHEMBL1201862, “PubChem BioAssay data set” (2004):
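Step 1: Grow cells in 96-well plates. Step 2: Expose to compound for 48 hours at 5 concentrations. Step 3: Interpolate endpoints linearly; if unreached, use highest concentration. Here, GI50 denotes the concentration required for 50% inhibition of growth.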 The source made the active and inactive calls. No stated cut-off is given here; in the data, active = GI50 up to about 1.1 µM and inactive = higher.

Tests used:
Test in all cases: NCI-60 cell line screen, 48 h
UACC-257 = system: UACC-257
HCT-15 = system: HCT-15
SF-295 = system: SF-295
TK-10 = system: TK-10
HL-60 = system: HL-60
SF-268 = system: SF-268
UO-31 = system: UO-31
COLO 205 = system: COLO 205
OVCAR-4 = system: OVCAR-4
SF-539 = system: SF-539
U-251 = system: U-251
RXF 393 = system: RXF 393
LOX IMVI = system: LOX IMVI
Malme-3M = system: Malme-3M
SR = system: SR
CAKI-1 = system: CAKI-1

| SMILES | GI50 (UACC-257) | GI50 (HCT-15) | GI50 (SF-295) | GI50 (TK-10) | GI50 (HL-60) | GI50 (SF-268) | GI50 (UO-31) | GI50 (COLO 205) | GI50 (OVCAR-4) | GI50 (SF-539) | GI50 (U-251) | GI50 (RXF 393) | GI50 (LOX IMVI) | GI50 (Malme-3M) | GI50 (SR) | GI50 (CAKI-1) |
| --- | --- | --- | --- | --- | --- | --- | --- | --- | --- | --- | --- | --- | --- | --- | --- | --- |
| Cc1ccc(NC(=O)CCC(=O)C2Cc3ccccc3C2=O)cc1C (centres undefined) | > 100 µM (inactive) | > 100 µM | > 100 µM (inactive) | > 100 µM (inactive) | > 100 µM (inactive) | > 100 µM (inactive) | > 100 µM (inactive) | > 100 µM (inactive) | > 100 µM (inactive) | > 100 µM (inactive) | > 100 µM (inactive) | > 100 µM (inactive) | > 100 µM (inactive) | > 100 µM (inactive) | > 100 µM (inactive) | > 100 µM (inactive) |
| CCC12CCCN(Cc3ccccc3)C1c1c(n(C)c3ccccc13)[C@H](C(=O)OC)C2 (some centres undefined) | 110 µM (inactive) | 85.7 µM | > 239 µM (inactive) | > 239 µM (inactive) | > 239 µM (inactive) | > 239 µM (inactive) |  | 112 µM (inactive) |  | > 239 µM (inactive) | > 239 µM (inactive) | > 239 µM (inactive) | > 239 µM (inactive) | > 239 µM (inactive) | > 239 µM (inactive) | 173 µM (inactive) |
| COc1ccc2c3c([nH]c2c1CC=C(C)C)C(=O)C=C(C)C3=O | > 25 µM (inactive) | > 25 µM | > 25 µM (inactive) | > 25 µM (inactive) | > 25 µM (inactive) | 12.3 µM (inactive) | > 25 µM (inactive) | > 25 µM (inactive) | 20.4 µM (inactive) | > 25 µM (inactive) | > 25 µM (inactive) | > 25 µM (inactive) |  | 16.1 µM (inactive) | 24.5 µM (inactive) | > 25 µM (inactive) |
| O=C(Nc1cccc2c1C(=O)c1c(NC(=O)c3ccccc3)ccc(Nc3cccc4c3C(=O)c3ccccc3C4=O)c1C2=O)c1ccccc1 | > 100 µM (inactive) | > 100 µM |  | > 100 µM (inactive) | > 100 µM (inactive) | > 100 µM (inactive) | > 100 µM (inactive) | > 100 µM (inactive) | > 100 µM (inactive) | > 100 µM (inactive) | > 100 µM (inactive) | 59.4 µM (inactive) |  | > 100 µM (inactive) | > 100 µM (inactive) | > 100 µM (inactive) |
| NC12CC3CC(C1)CC(C(=O)O)(C3)C2 | > 100 µM (inactive) | > 100 µM | > 100 µM (inactive) | > 100 µM (inactive) | > 100 µM (inactive) | > 100 µM (inactive) | > 100 µM (inactive) |  | > 100 µM (inactive) | > 100 µM (inactive) | > 100 µM (inactive) |  | > 100 µM (inactive) |  | > 100 µM (inactive) | > 100 µM (inactive) |
| CCOC(=O)CCCO | > 100 µM (inactive) | > 100 µM | > 100 µM (inactive) | > 100 µM (inactive) | > 100 µM (inactive) | > 100 µM (inactive) | > 100 µM (inactive) |  |  | > 100 µM (inactive) | > 100 µM (inactive) | > 100 µM (inactive) | > 100 µM (inactive) | > 100 µM (inactive) | > 100 µM (inactive) |  |
| CCOC(=O)/C([O-])=C(\C(=O)OCC)[n+]1c(C)n(C)c2ccccc21 | > 100 µM (inactive) |  | > 100 µM (inactive) | > 100 µM (inactive) | > 100 µM (inactive) | > 100 µM (inactive) | > 100 µM (inactive) | > 100 µM (inactive) | > 100 µM (inactive) | > 100 µM (inactive) | > 100 µM (inactive) | > 100 µM (inactive) | > 100 µM (inactive) | > 100 µM (inactive) |  | > 100 µM (inactive) |
| CCSC(=O)C1(C)OC2CCCCC2C1=O (centres undefined) | > 100 µM (inactive) | > 100 µM |  | > 100 µM (inactive) | > 100 µM (inactive) | > 100 µM (inactive) | > 100 µM (inactive) | > 100 µM (inactive) | > 100 µM (inactive) | > 100 µM (inactive) | > 100 µM (inactive) | > 100 µM (inactive) |  | > 100 µM (inactive) | > 100 µM (inactive) | > 100 µM (inactive) |
| O=C1CC(c2c[nH]c3ccccc23)C(=O)N1c1ccccc1 (centres undefined) | > 100 µM (inactive) | > 100 µM | > 100 µM (inactive) | > 100 µM (inactive) | > 100 µM (inactive) |  | 83.6 µM (inactive) |  | > 100 µM (inactive) | > 100 µM (inactive) | > 100 µM (inactive) | > 100 µM (inactive) |  | > 100 µM (inactive) |  | > 100 µM (inactive) |
| Cn1cnc([N+](=O)[O-])c1Sc1nnc(-c2ccc(Cl)cc2)n1C | 12.7 µM (inactive) |  | 50 µM (inactive) | 17.7 µM (inactive) |  | 20.3 µM (inactive) | 14.6 µM (inactive) | 11.9 µM (inactive) | 13.7 µM (inactive) | 16.2 µM (inactive) | 16.3 µM (inactive) | 3.15 µM (inactive) | 7.67 µM (inactive) | 10.6 µM (inactive) | 7.41 µM (inactive) | 15.9 µM (inactive) |
